According to PubChem BioAssay (NCI):
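96-well plates; 48 h exposure; 5 concentrations. Endpoints by linear interpolation between flanking doses. Not reached: highest tested concentration assigned. TGI is the concentration that stops growth completely.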

What was measured:
Assay in all cases: NCI-60 cell line screen, 48 h
EKVX NSCLC = tested on: EKVX NSCLC
HCT-116 colon = tested on: HCT-116 colon
HOP-92 NSCLC = tested on: HOP-92 NSCLC
HT29 colon = tested on: HT29 colon
IGROV1 ovarian = tested on: IGROV1 ovarian
K-562 leukemia = tested on: K-562 leukemia
KM12 colon = tested on: KM12 colon
MOLT-4 leukemia = tested on: MOLT-4 leukemia
NCI-H522 lung = tested on: NCI-H522 lung
OVCAR-3 ovarian = tested on: OVCAR-3 ovarian
OVCAR-8 ovarian = tested on: OVCAR-8 ovarian
PC-3 prostate = tested on: PC-3 prostate
RPMI-8226 leukemia = tested on: RPMI-8226 leukemia
SF-268 CNS = tested on: SF-268 CNS
SK-MEL-2 melanoma = tested on: SK-MEL-2 melanoma
SNB-19 CNS = tested on: SNB-19 CNS
T-47D breast = tested on: T-47D breast
TK-10 renal = tested on: TK-10 renal
HS 578T breast = tested on: HS 578T breast
CAKI-1 renal = tested on: CAKI-1 renal

Compound | TGI (EKVX NSCLC) | TGI (HCT-116 colon) | TGI (HOP-92 NSCLC) | TGI (HT29 colon) | TGI (IGROV1 ovarian) | TGI (K-562 leukemia) | TGI (KM12 colon) | TGI (MOLT-4 leukemia) | TGI (NCI-H522 lung) | TGI (OVCAR-3 ovarian) | TGI (OVCAR-8 ovarian) | TGI (PC-3 prostate) | TGI (RPMI-8226 leukemia) | TGI (SF-268 CNS) | TGI (SK-MEL-2 melanoma) | TGI (SNB-19 CNS) | TGI (T-47D breast) | TGI (TK-10 renal) | TGI (HS 578T breast) | TGI (CAKI-1 renal)
CCOC(=O)CSc1nnc(CSc2nc(-c3ccccc3)c(-c3ccccc3)[nH]2)n1-c1ccccc1 | > 100 µM | > 100 µM | > 100 µM | > 100 µM | > 100 µM | > 100 µM | > 100 µM | > 93.8 µM | > 100 µM | > 100 µM | 35.3 µM | 43.8 µM | > 100 µM | > 81.3 µM | > 31.6 µM | > 100 µM | 89.7 µM | 31.9 µM | – | –
N#CCOc1ccc(/C=C/C(=O)c2ccc(Cl)cc2)cc1 | > 100 µM | 27.8 µM | 81.4 µM | > 100 µM | 60.4 µM | > 100 µM | 73.5 µM | > 100 µM | – | > 100 µM | 93.6 µM | > 100 µM | > 100 µM | > 100 µM | – | 61.7 µM | 61.2 µM | 74.5 µM | 50.9 µM | –
COc1ccc(-c2nnc3n(Cc4ccccc4)c4ccccc4n3c2=O)cc1 | > 100 µM | > 100 µM | 95 µM | > 100 µM | 63.7 µM | – | > 100 µM | > 100 µM | 80.7 µM | – | > 100 µM | 32.4 µM | – | > 100 µM | > 100 µM | 80 µM | > 100 µM | 58.1 µM | > 100 µM | 45 µM
CC(C)OP(=O)(OC(C)C)c1ccc2c(c1)OCCOCCOCCOCCO2 | > 100 µM | > 100 µM | – | > 100 µM | > 100 µM | > 100 µM | > 100 µM | > 100 µM | > 100 µM | – | > 100 µM | > 100 µM | > 100 µM | > 100 µM | – | > 100 µM | > 100 µM | > 100 µM | > 100 µM | > 100 µM
Cc1nc2c(cc1C(=O)N/N=C/c1ccc([N+](=O)[O-])cc1)c(=O)n(C)c(=O)n2C | > 100 µM | > 100 µM | – | > 100 µM | > 100 µM | > 100 µM | > 100 µM | > 100 µM | – | > 100 µM | > 100 µM | > 100 µM | > 100 µM | > 100 µM | > 100 µM | 56.7 µM | > 100 µM | > 100 µM | 86.6 µM | > 100 µM
c1cc2nnc1SCCCSc1ccc(nn1)SCCCSc1ccc(nn1)SCCCS2 | – | > 100 µM | – | > 100 µM | > 100 µM | > 100 µM | > 100 µM | > 100 µM | > 100 µM | > 100 µM | > 100 µM | > 100 µM | > 100 µM | > 100 µM | > 100 µM | > 100 µM | > 100 µM | > 100 µM | > 100 µM | > 100 µM
CC(=O)Nc1ccc(-c2nc3ccccc3s2)cc1C | > 100 µM | > 100 µM | > 100 µM | > 100 µM | > 100 µM | – | > 100 µM | > 100 µM | – | – | > 100 µM | > 100 µM | > 100 µM | > 100 µM | > 100 µM | > 100 µM | > 100 µM | > 100 µM | > 100 µM | 59 µM
CC1CCCCN1CC(=O)c1ccc2c(c1)Sc1ccccc1O2 (stereo unspecified) | 28.7 µM | 30.7 µM | 30.5 µM | 22.7 µM | 19.9 µM | > 100 µM | 30.3 µM | > 100 µM | – | 27.8 µM | 30.8 µM | 26.1 µM | > 100 µM | 34.2 µM | 32.4 µM | 36 µM | 48 µM | 42.5 µM | 25.7 µM | 37.5 µM
Cc1c(/C=N/NC(=S)Nc2ccccc2)c(=O)n(-c2ccccc2)n1C | > 100 µM | > 100 µM | > 100 µM | > 100 µM | > 100 µM | > 100 µM | > 100 µM | > 100 µM | – | – | > 100 µM | > 100 µM | > 100 µM | > 100 µM | > 100 µM | > 100 µM | > 100 µM | > 100 µM | > 100 µM | > 100 µM
COC(=O)C(C(=O)C(=O)Nc1ccccc1C#N)c1nc2ccc([N+](=O)[O-])cc2[nH]c1=O (stereo unspecified) | > 100 µM | > 100 µM | > 100 µM | > 100 µM | > 100 µM | – | > 100 µM | > 100 µM | > 100 µM | > 100 µM | > 100 µM | > 100 µM | – | > 100 µM | > 100 µM | > 100 µM | > 100 µM | > 100 µM | > 100 µM | > 100 µM
COC(=O)C1(C(=O)OC)N=C(C)OC1c1ccccn1 (stereo unspecified) | > 100 µM | > 100 µM | > 100 µM | – | > 100 µM | > 100 µM | > 100 µM | > 100 µM | – | > 100 µM | > 100 µM | > 100 µM | > 100 µM | – | > 100 µM | > 100 µM | > 100 µM | > 100 µM | – | > 100 µM
CCOC(=O)/C(N=Nc1ccc(-n2c(C)nc3ccc(Br)cc3c2=O)cc1)=C(/C)O | > 100 µM | > 100 µM | > 100 µM | > 100 µM | > 100 µM | > 100 µM | > 100 µM | > 100 µM | – | > 100 µM | > 100 µM | > 100 µM | > 100 µM | > 100 µM | > 100 µM | > 100 µM | > 100 µM | > 100 µM | 70.7 µM | > 100 µM
COc1cc(/C=C/c2nc(N)nnc2C)cc(OC)c1OC | > 72.9 µM | > 53.9 µM | > 100 µM | 39 µM | 37.3 µM | 71.2 µM | > 50.5 µM | > 90.7 µM | 21.7 µM | – | > 100 µM | > 53 µM | 52.5 µM | > 54.4 µM | > 54.4 µM | > 82.2 µM | > 100 µM | > 77.3 µM | > 67.5 µM | > 100 µM
